Measured values as given in US6676950B2, “Neurokinin receptor antagonists and methods of use thereof for inhibiting HIV infection” (The Children's Hospital of Philadelphia, priority 2001, dated 2004).

What was measured:
HIV Bal strain = assay: HIV gag mRNA in infected MDM by RT-PCR / real time RT-PCR; format: cell-based; conditions: 12 days after infection
Method: HIV Infection: After 2 h incubation with or without the reagents described above, the cells were infected with equal amounts of cell-free HIV based on p24 antigen content (20 ng/10^6 cells) overnight, and then washed to remove unbound virus. Fresh media containing SP and/or CP-96,345 or anti-SP antibody were added to the MDM as described above. The culture media and the reagents were replaced twice weekly. The culture supernatants were harvested for HIV reverse transcriptase (RT) activity determinations. After HIV infection, the MDM were incubated for 8 to 12 days. At the termination of the experiments, cellular RNA was extracted for assessment of HIV gag gene expression using RT-PCR or real time RT-PCR assays.
(§1) Total RNA was isolated from human peripheral blood MDM (10^6 cells) using Tri-Reagent (Molecular Research Center, Cincinnati, Ohio) as we previously reported (16).
Reverse transcription: Total RNA (1 μg) was reverse transcribed using Reverse Transcription System (Promega, Madison, Wis.) with the specific primers (antisense) for HIV gag (5′-[…]-[…]-3′; SEQ ID NO: 1) (27) or CCR5 (5′-[…]-3′; SEQ ID NO: 2) (32) for 1 h at 42° C. RT reactions was terminated by incubating the reaction mixture at 99° C. for 5 min and then kept at 4° C. The resulting cDNA was used as a template for PCR amplification or real time PCR quantification. […]

HIV LTR promoter = assay: HIV LTR-driven CAT activity assay in U38 cells; format: cell-based
Description: ACH-2 and U38 cell lines (25, 26) were obtained from the NIH AIDS Reagent Program. DNA extracted from ACH-2 cells was used as a positive standard for HIV DNA PCR as previously reported (27). The U38 cell line contains stably integrated, silent copies of the HIV LTR (long terminal repeat) promoter linked to a CAT (chloramphenicol acetyltransferase) gene and was used to study the effect of SP and/or CP-96,345 and R-113281 on the activation of HIV LTR promoter.
Chloramphenicol acetyltransferase (CAT) activity assay: U38 cells (2×10^6 cells) were incubated with different concentrations of SP and/or CP-96,345 or R-113281 for 48 h. Untreated U38 cells were used as a background control. Cellular proteins were extracted using 1X Reporter Lysis Bufffer (Promega Corp., Madison, Wis.). The lysates were incubated with a mixture containing 0.15 μCi of ^14C-labeled chloramphenicol (DuPont Inc., Boston, Mass.) and 200 μg/ml of n-Butyryl CoA (Promega Corp., Madison, Wis.) in a total volume of 125 μl at 37° C. for 3 h. The acetylated forms of chloramphenicol were extracted with xylene (Aldrich Chemical Company, Milwaukee, Wis.). CAT activity of each sample was quantified using a liquid-scintillation counter (Packard Instrument Company, Downers Grove, Ill.). The results were expressed as the ratio of CAT activity (CPM) of the SP and/or CP-96,345-treated or R-113281-treated U38 to that of the background control.

[1] = system: CD4, CXCR4 and CD14 receptors; assay: Flow cytometry of CD4, CXCR4 and CD14 receptor expression on MDM; format: cell-based, human; conditions: incubated overnight (24 h); direct immunofluorescence
Method: The cells were removed from the culture plate and then resuspended in 100 μl of phosphate-buffered saline (PBS). After incubation with 20 μl of either anti-CCR5-FITC or anti-CXCR4-FITC or anti-CD4-FITC or anti-CD14-FITC for 45 min at 4° C., the cells were washed twice with PBS and fixed with 1% paraformaldehyde in PBS. Fluorescein-conjugated control antibodies were isotype-matched IgG. Fluorescence was analyzed on an EPICS-Elite flow cytometer (Beckman-Coulter Electronics, Hialeah, Fla.).

CCR5 mRNA = CCR5 mRNA expression in MDM by RT-PCR / real-time RT-PCR; format: cell-based, human; conditions: for relative CCR5 mRNA level (real-time RT-PCR): 4 hours
Method: as §1
Reverse transcription: Total RNA (1 μg) was reverse transcribed using Reverse Transcription System (Promega, Madison, Wis.) with the specific primers (antisense) for HIV gag (5′-[…]-[…]-3′; SEQ ID NO: 1) (27) or CCR5 (5′-[…]-3′; SEQ ID NO: 2) (32) for 1 h at 42° C. RT reactions was terminated by incubating the reaction mixture at 99° C. for 5 min and then kept at 4° C. The resulting cDNA was used as a template for PCR amplification or real time PCR quantification.
Polymerase chain reaction (PCR) analysis: PCR amplification of CCR5 and HIV gag cDNA was performed with one tenth of the cDNA for 35 cycles (CCR5) (32) or 40 cycles (gag) (27) using AmpliTaq Gold (Perkin ElmerCetus, Foster City, Calif.) in a GeneAmp PCR System 2400 (Perkin Elmer-Cetus). β-Actin was used as a control to monitor the amount and integrity of RNA in each sample (Clontech, Palo Alto, Calif.). Real time PCR was performed with one tenth of cDNA using ABI Prism 7700 Sequence Detection System (Perkin Elmer). The reaction mixture contained 0.25 mM of dNTPs, AmpliTaq Gold (1.5 U), 5 mM of MgCl2, 50 pmole of each of the two primers (SK38: 5′-[…]-3′(SEQ ID NO: 3); SK39: 5′-[…]-3′; SEQ ID NO: 4), 20 pmole of the molecular beacon probe (SK19: 5′[…]-3′; SEQ ID NO: 5) labeled with FAM (a fluorophore) at its 5′ end and DABCYL (a quencher) at the 3′end. The cycle conditions were 95° C. 10 min followed by 40 cycles of 95° C. 15 sec and 60° C. 1 min. The known amounts of HIV DNA isolated from ACH-2 cells were used as standard controls. All standards and samples were run in duplicates. HIV gag, CCR5, β-Actin primer pairs and the probe (SK19) were synthesized by Integrated DNA Technologies, Inc. (Coralville, Ind.).

TNF-α = assay: LPS-stimulated TNF-α production in MDM by ELISA; format: cell-based, human; conditions: 10^−9 to 10^−7M; LPS 1 ng/ml; 24 h
Method: (§2) In order to determine the role of CP-96,345 in the regulation of cytokine secretion, 7-day-cultured MDM were incubated with or without CP-96,345 (10^−9 to 10^−7M) and/or LPS (1 ng/ml) for 24 h. The culture supernatants were collected to determine TNF-A and IL-6 levels by ELISA. The ELISA kits were purchased from Endogen, Inc. (Woburn, Mass.).

IL-6 = assay: LPS-stimulated IL-6 production in MDM by ELISA; format: cell-based, human; conditions: 10^−9 to 10^−7M; LPS 1 ng/ml; 24 h
Method: as §2

SP mRNA = SP mRNA expression in MDM by real-time RT-PCR; format: cell-based, human; conditions: 4 hours; percentage of untreated MDM
Method: FIG. 17. A graph showing the effect of CP-96,345 on SP mRNA expression in MDM. The MDM were incubated with (+) or without (−) the NK-1R antagonist at the indicated concentration for 4 hours. The SP mRNA levels were determined by a real-time RT-PCR. The SP mRNA levels in the CP-96,345 treated MDM are expressed as a percentage of that in untreated MDM which are defined as 100%.
The effect of CP-96,345 on SP mRNA expression in MDM was also determined. The MDM were incubated with (+) or without (−) the NK-1R antagonist at the indicated concentration for 4 hours. The SP mRNA levels were determined by a real-time RT-PCR.

SMILES | HIV gag mRNA expression (RT-PCR) (HIV Bal strain; 10^−11 to 10^−7 M) | HIV gag gene mRNA copy numbers (real time RT-PCR) (HIV Bal strain; same samples) | effect on SP activation of HIV LTR-driven CAT activity (HIV LTR promoter; SP 10^−8M plus CP-96,345 10^−6M, 48 h) | CD4, CXCR4 and CD14 receptor expression on MDM [1] | CCR5 mRNA in MDM (RT-PCR) (CCR5 mRNA; 10^−8 to 10^−6M, 3 h) | relative CCR5 mRNA level (real-time RT-PCR) (CCR5 mRNA; CP-96,345 10^−7 M to 10^−6 M) | LPS-stimulated TNF-A production in MDM (TNF-α) | IL-6 production in MDM (IL-6) | SP mRNA expression in MDM (real-time RT-PCR) (SP mRNA) | effect on SP activation of HIV LTR-driven CAT activity (HIV LTR promoter; SP (10^−8M) plus R-113281 (10^−6M), 48 hours) | relative CCR5 mRNA level (real-time RT-PCR) (CCR5 mRNA; R-113281 10^−8 M to 10^−6 M)
COc1ccccc1CN[C@H]1C2CCN(CC2)[C@H]1C(c1ccccc1)c1ccccc1 [CP-96,345, [2S,3S)-cis-2-(diphenylmethyl)-N-[(2-methoxyphenyl)-methyl]-1-azabicyclo [[2.2.2]-octan-3-amine]] | potently inhibited | significantly suppress | abrogated | only CCR5 expression was down-regulated | down-regulated | significantly down-regulated | attenuated | not affected | significantly inhibited |  | 
COc1cc(C(=O)N2CCO[C@](CCN3CCC4(CC3)c3ccccc3C[S@+]4[O-])(c3ccc(Cl)c(Cl)c3)C2)cc(OC)c1OC.Cl [R-113281] |  |  |  |  |  |  |  |  |  | abrogated | significantly down-regulated
